For assay [1], the target named is T1, ACP-NK1 fusion protein displayed on HEK293 cells (UniProt P0A6A8+P24224+P25103).
T1 construct: FLAG tag (C); 6xHis tag (C); expressed in transfected cells; host or cells: HEK293 (transient, pCEP4 vector)
The experiment in a line: Labeling of ACP-NK1 fusion protein displayed on HEK293 cells (confocal fluorescence microscopy). The class given is cell-based. The note with it: 5 μM CoA substrate, 1 μM 6xHis-AcpS, 10 min RT; CoA-Bt followed by Streptavidin-Cy5; no staining of non-transfected cells. As to the method:
For the transient expression of ACP-NK1, the signal sequence of the 5-HT3-receptor (Sig5HT3) is fused to the N terminus of ACP via a short DYV linker and NK1 is fused to the C terminus of ACP via a short TS linker. In the resulting construct, a FLAG tag and a 6xHis tag is also attached to the C terminus of NK1. The corresponding gene of the fusion protein is inserted into the NheI and BamHI sites of the vector pCEP4 (Invitrogen). HEK293 cells are grown in DMEM/F2 (Dulbecco's modified Eagle medium, GIBCO BRL) supplemented with […] fetal calf serum (GIBCO, BRL). Transient transfection is performed as described (Nat Biotechnol 21, 86-89 (2003)) and the HEK293 cells are co-transfected with vectors expressing ACP-NK1 and a nuclear targeted EGEP (EGFP-NLS3). After 24 h, cells are incubated for 10 min at room temperature with 500 μl of PBS buffer containing MgCl2 (10 mM), 6xHis-AcpS (1 μM) and either CoA-Cy3, CoA-Cy5 or CoA-Bt (each 5 μM). The cells are then washed three times with PBS to remove any excess substrate and directly analyzed by laser-scanning confocal fluorescence microscopy when labeled with Cy3 or Cy5. Biotinylated cells are incubated with FluoroLink™ Cy5-labeled streptavidin (Amersham Biosciences) at concentrations of 1 μg/ml in PBS before being washed three times with PBS. Laser-scanning confocal micographs are recorded using a 488 nm argon/krypton laser line; a 543 nm HeNe laser line or a 633 nm HeNe laser line on a Zeiss LSM 510 microscope (Carl Zeiss AG, Göttingen, Germany) with a 63× water (1.2 numerical aperture) objective. Scanning speed and laser intensity are adjusted to avoid photobleaching of the fluorescent probes, and damage or morphological changes of the cells. Fluorescence is analyzed in the channels sensitive to GFP and sensitive to the respective dye. […] The ACP-NK1 receptor transiently expressed in HE293 cells is co-stained in a further experiment with CoA-Cy5 and with tetramethylrhodamine-labeled substance P(SP-rho), the natural ligand of NK1.

A further assay concerns the target 6xHis-ACP (Escherichia coli, UniProt P0A6A8+P24224). The experiment in a line: In vitro biotinylation of 6xHis-ACP using CoA-Bt and 6xHis-ACPS (Western blot). The class given is biochemical, E. coli. The note with it: 6xHis-ACP 1 μM, 6xHis-ACPS 0.2 μM, CoA-Bt 5 μM; controls lacking components. As to the method:
(A) Analysis of the reaction of 6xHis-ACP (1 μM), 6xHis-ACPS (0.2 μM) and CoA-Bt (5 μM). At indicated times (t) aliquots are removed from the reaction mixture and biotinylation of 6xHis-ACP probed by Western blotting using a streptavidin-peroxidase conjugate.
Purified 6xHis-ACP (1 μM) is incubated with 6xHis-ACPS (0.2 μM) and MgCl2 (10 mM) in reaction buffer (43 μl, 50 mM Tris Cl, pH 8.8) at room temperature. An aliquot of 7.5 μl is taken for analysis. CoA-Bt is added to a final concentration of 5 μM. Aliquots of 7.5 μl are taken at defined times. The aliquots are quenched for 30 seconds with coenzyme A (1 mM final concentration), and 8.2 μl SDS-buffer 2× are added. The samples are heated for 2 minutes at 95° C. The biotinylated 6xHis-ACP is detected by Western-blotting, using a streptavidin-horseradish peroxidase conjugate (NEN) and a chemiluminescent peroxidase substrate (Renaissance reagent plus, NEN). The western blot is analyzed using an image station (Kodak 440). As controls, samples containing each protein alone, and samples containing only one of the two proteins and CoA-Bt are also prepared and analyzed for biotinylation as above in order to check the background and to check the specificity of the reaction.
Background: A western blot detects proteins with antibodies after separation by electrophoresis.

In the next assay the target is T2, 6xHis-ACPS (Escherichia coli, UniProt P24224).
T2 sequence (P24224 1-126): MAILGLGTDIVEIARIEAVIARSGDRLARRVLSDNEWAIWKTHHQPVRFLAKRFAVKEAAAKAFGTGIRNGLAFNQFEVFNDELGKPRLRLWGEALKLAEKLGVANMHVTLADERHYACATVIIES
The experiment in a line: Competition assay between CoA and CoA-label as ACPS substrates. The note with it: 6xHis-ACP 0.4 μM, 6xHis-ACPS 0.4 μM, CoA-L 2 μM, CoA 0-80 μM; fit I=A/(1+Bx) of Western blot intensities. The class given is biochemical, E. coli. As to the method: (C) Competition assay between CoA and CoA-Bt or CoA-Dg as ACPS substrates: 6xHis-ACP (0.4 μM), 6xHis-ACPS (0.4 μM), CoA-Bt or CoA-Dg (2 μM) and varying concentrations of CoA (0-80 μM) are incubated for 30 min and the degree of labeling determined by Western blotting.
Purified 6xHis-AcpS (0.4 μM) is incubated at RT with either CoA-Bt or CoA-Dg (2 μM), variable amounts of CoA (0, 2, 4, 8, 12, 20, 40, 80 μM) and purified 6xHis-ACP-ha (0.4 μM) in 20 μl reaction buffer (50 mM Tris.Cl, pH 7.5, 10 mM MgCl2). After 25 minutes, each sample is quenched by addition of 20 μl of 2×SDS sample buffer and heated at 95° C. for 2 minutes. Labeled 6xHis-ACP-ha is detected by Western-blotting using either a streptavidin-horseradish peroxidase conjugate (dilution 1:12500) or an anti-digoxigenin antibody-horseradish peroxidase conjugate (dilution 1:500) and a chemiluminescent peroxidase substrate. Signal intensities at 0 μM CoA are arbitrary set to 1 for each experiment.

Assay [2] has as its target T3, ACP-NK1 receptor transiently expressed in HE293 cells (UniProt P0A6A8+P25103).
T3 construct: FLAG tag (C); 6xHis tag (C); expressed in transfected cells; host or cells: HEK293 (transient, pCEP4 vector)
The experiment in a line: Co-staining of ACP-NK1 with CoA-Cy5 and SP-rho, reversal by unlabeled substance P. The conditions noted are these: CoA-Cy5 and SP-rho co-stained. The class given is cell-based. As to the method:
For the transient expression of ACP-NK1, the signal sequence of the 5-HT3-receptor (Sig5HT3) is fused to the N terminus of ACP via a short DYV linker and NK1 is fused to the C terminus of ACP via a short TS linker. In the resulting construct, a FLAG tag and a 6xHis tag is also attached to the C terminus of NK1. The corresponding gene of the fusion protein is inserted into the NheI and BamHI sites of the vector pCEP4 (Invitrogen). HEK293 cells are grown in DMEM/F2 (Dulbecco's modified Eagle medium, GIBCO BRL) supplemented with […] fetal calf serum (GIBCO, BRL). Transient transfection is performed as described (Nat Biotechnol 21, 86-89 (2003)) and the HEK293 cells are co-transfected with vectors expressing ACP-NK1 and a nuclear targeted EGEP (EGFP-NLS3). […] The cells are then washed three times with PBS to remove any excess substrate and directly analyzed by laser-scanning confocal fluorescence microscopy when labeled with Cy3 or Cy5. […] Laser-scanning confocal micographs are recorded using a 488 nm argon/krypton laser line; a 543 nm HeNe laser line or a 633 nm HeNe laser line on a Zeiss LSM 510 microscope (Carl Zeiss AG, Göttingen, Germany) with a 63× water (1.2 numerical aperture) objective. […] Fluorescence is analyzed in the channels sensitive to GFP and sensitive to the respective dye. […]

The source of these data is US8476031B2, “Methods for protein labeling based on acyl carrier protein” (priority 2003, dated 2013).

T1 sequence (P0A6A8+P25103 fused, one chain of several): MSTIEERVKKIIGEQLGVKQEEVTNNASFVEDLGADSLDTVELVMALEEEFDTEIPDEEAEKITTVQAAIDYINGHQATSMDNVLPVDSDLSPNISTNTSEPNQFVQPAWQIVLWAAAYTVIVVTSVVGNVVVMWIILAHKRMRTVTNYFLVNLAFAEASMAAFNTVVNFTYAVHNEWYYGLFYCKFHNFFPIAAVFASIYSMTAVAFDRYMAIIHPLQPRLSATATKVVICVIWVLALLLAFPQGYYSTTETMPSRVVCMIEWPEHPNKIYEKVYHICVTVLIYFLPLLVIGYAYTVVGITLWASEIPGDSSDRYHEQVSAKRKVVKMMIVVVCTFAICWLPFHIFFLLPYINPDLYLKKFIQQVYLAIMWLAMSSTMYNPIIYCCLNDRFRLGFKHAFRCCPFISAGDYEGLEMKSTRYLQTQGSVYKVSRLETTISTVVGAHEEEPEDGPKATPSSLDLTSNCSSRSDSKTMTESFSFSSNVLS
Chain of 6xHis-ACP (P0A6A8 whole entry, looked up, one chain of several): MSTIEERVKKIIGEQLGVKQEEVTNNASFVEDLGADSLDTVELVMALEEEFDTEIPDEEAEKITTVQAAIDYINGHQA
T3 sequence (P0A6A8+P25103 fused): as the sequence (P0A6A8+P25103 fused, one chain of several) above

On to `CC(C)(COP(=O)(O)OP(=O)(O)OC[C@H]1O[C@@H](n2cnc3c(N)ncnc32)C(O)[C@H]1OP(=O)(O)O)[C@@H](O)C(=O)NCCC(=O)NCCS[C@@H]1CC(=O)N(CCCCCC(=O)NNC(=O)CCCC[C@@H]2SC[C@@H]3NC(=O)N[C@@H]32)C1=O` (stereo partly shown) [CoA-Bt], for which the “membrane labelling of transfected HEK293 cells” value (“membrane labelling” for short) in assay [1] was “clear membrane labelling”. In addition, at 6xHis-ACP, the “biotinylation of 6xHis-ACP, specificity controls” value is on record as “depends on the presence of all three components”. Moreover, the “ratio of the specificity constants (kcat/KM)CoA/(kcat/KM)CoA-L” value at 6xHis-ACPS came to 0.48. `CCN1/C(=C/C=C/C2=[N+](CCCCCC(=O)NCCN3C(=O)C[C@@H](SCCNC(=O)CCNC(=O)[C@H](O)C(C)(C)COP(=O)(O)OP(=O)(O)OC[C@H]4O[C@@H](n5cnc6c(N)ncnc65)C(O)[C@H]4OP(=O)(O)O)C3=O)c3ccc(S(=O)(=O)O)cc3C2(C)C)C(C)(C)c2cc(S(=O)(=O)[O-])ccc21` (stereo partly shown) [CoA-Cy3]: in assay [1], the “membrane labelling” value is recorded as “clear membrane labelling”. Turning to `CCN1/C(=C/C=C/C=C/C2=[N+](CCCCCC(=O)NCCN3C(=O)C[C@@H](SCCNC(=O)CCNC(=O)[C@H](O)C(C)(C)COP(=O)(O)OP(=O)(O)OC[C@H]4O[C@@H](n5cnc6c(N)ncnc65)C(O)[C@H]4OP(=O)(O)O)C3=O)c3ccc(S(=O)(=O)O)cc3C2(C)C)C(C)(C)c2cc(S(=O)(=O)[O-])ccc21` (stereo partly shown) [CoA-Cy5], the “membrane labelling” value in assay [1] is given as “clear membrane labelling”. Besides, in assay [2], the “staining localisation in co-staining experiment” value was “stain exclusively the membrane area”. Turning to `CC(C)(COP(=O)(O)OP(=O)(O)OC[C@H]1O[C@@H](n2cnc3c(N)ncnc32)C(O)[C@H]1OP(=O)(O)O)[C@@H](O)C(=O)NCCC(=O)NCCSC1CC(=O)N(CCCCCC(=O)NNC(=O)CCC(=O)N[C@H]2CC[C@@]3(C)[C@H](CC[C@@H]4[C@H]3C[C@@H](O)[C@]3(C)[C@@H](C5=CC(=O)OC5)CC[C@]43O)C2)C1=O` (stereo partly shown) [CoA-Dg], at 6xHis-ACPS, the “ratio of the specificity constants (kcat/KM)CoA/(kcat/KM)CoA-L” value worked out at 0.35.
